Results taken from patent US20220274979A1 (Bayer Pharma Aktiengesellschaft, priority 2018, published 2022).

How the values were obtained:
[1] = molecular target: T1, hK-RasG12C - hSOS1 interaction (Homo sapiens, UniProt Q07889); assay: Biochemical Assay 1: hK-RasG12C interaction assay with hSOS1 (HTRF); type: binding; details: values expressed as IC50
T1 construct: hSOS1 (amino acid 564-1049); made in house; host or cells: E. coli BL21 (DE3)
T1 sequence (Q07889 with tags, fused parts or gaps): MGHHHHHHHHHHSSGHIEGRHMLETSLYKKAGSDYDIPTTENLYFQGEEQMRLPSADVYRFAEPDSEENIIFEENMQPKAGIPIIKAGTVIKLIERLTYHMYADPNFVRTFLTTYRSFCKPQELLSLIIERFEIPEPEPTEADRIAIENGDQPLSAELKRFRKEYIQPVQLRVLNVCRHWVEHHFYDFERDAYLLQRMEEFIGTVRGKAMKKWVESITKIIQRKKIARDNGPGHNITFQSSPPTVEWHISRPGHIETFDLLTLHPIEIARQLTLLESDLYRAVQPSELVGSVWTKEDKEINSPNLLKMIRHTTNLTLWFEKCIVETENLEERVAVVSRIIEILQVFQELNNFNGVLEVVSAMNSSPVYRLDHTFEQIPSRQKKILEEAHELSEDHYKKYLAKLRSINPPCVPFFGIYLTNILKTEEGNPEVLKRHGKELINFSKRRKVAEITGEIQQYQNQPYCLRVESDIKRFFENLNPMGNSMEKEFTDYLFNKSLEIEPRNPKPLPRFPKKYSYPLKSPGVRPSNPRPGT
Method in brief: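 HTRF signal between GST-hK-RasG12C (10 nM working solution, anti-GST-Eu) and His-hSOS1 (20 nM working solution, anti-6His-XL665) was read in HEPES pH 7.4 buffer with 10 mM EDTA, 1 mM DTT and 100 mM KF at 20 °C.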

[2] = molecular target: T2, Epidermal Growth Factor Receptor (EGFR) (Homo sapiens, UniProt P00533); assay: EGFR kinase assay (TR-FRET); type: biochemical; details: 10 μM ATP; read-out: EGFR kinase inhibition IC50
T2 construct: purchased Sigma-Aldrich E3641
T2 sequence (P00533 25-1210): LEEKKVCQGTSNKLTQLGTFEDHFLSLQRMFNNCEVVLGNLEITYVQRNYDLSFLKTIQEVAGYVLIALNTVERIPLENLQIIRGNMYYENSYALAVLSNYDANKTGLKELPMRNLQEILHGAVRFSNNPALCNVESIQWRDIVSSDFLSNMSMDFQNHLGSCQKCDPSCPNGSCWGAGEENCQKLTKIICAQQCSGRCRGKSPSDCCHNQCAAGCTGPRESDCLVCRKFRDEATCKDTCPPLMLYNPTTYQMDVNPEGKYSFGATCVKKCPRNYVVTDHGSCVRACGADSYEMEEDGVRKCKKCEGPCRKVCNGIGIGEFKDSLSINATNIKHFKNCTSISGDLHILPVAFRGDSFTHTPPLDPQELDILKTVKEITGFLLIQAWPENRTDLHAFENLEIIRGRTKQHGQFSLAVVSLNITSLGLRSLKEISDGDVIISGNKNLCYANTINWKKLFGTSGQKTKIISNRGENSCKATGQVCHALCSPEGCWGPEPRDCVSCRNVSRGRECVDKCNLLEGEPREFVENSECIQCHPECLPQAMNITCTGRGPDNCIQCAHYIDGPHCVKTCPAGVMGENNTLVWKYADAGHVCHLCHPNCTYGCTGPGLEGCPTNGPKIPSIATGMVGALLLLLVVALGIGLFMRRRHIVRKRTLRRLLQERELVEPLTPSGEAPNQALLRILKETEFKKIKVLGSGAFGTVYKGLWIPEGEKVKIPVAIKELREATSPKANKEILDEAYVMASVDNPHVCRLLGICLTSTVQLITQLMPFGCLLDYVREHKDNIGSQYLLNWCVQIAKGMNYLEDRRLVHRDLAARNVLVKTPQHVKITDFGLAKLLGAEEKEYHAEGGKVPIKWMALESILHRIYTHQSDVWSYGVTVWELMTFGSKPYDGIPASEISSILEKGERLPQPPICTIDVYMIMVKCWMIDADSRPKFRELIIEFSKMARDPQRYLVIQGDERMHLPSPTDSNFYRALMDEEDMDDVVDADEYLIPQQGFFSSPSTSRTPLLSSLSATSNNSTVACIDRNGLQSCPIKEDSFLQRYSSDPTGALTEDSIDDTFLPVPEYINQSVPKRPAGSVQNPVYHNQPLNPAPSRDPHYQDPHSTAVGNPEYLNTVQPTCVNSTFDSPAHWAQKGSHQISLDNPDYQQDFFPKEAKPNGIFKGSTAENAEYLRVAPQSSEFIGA
Method in brief: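 EGFR purified from A431 cells pre-incubated 15 min with compound, then reacted 20 min at 22 °C with 10 μM ATP and 1 μM biotinylated peptide (final) in HEPES pH 7.0 with Mg2+/Mn2+. Phosphopeptide detected by TR-FRET (Tb anti-phosphotyrosine/streptavidin-XL665), 665/620 nm emission ratio.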

| SMILES | IC50 [1] | IC50 [2] |
| --- | --- | --- |
| Cc1nc(NC(C)c2ccc(-c3ccccc3CN(C)C)s2)c2cc(N3CC(NC(=O)c4ccccc4)C3)ncc2n1 (stereo not shown) [Example 88, N-[1-(4-{[1-(5-{2-[(dimethylamino)methyl]phenyl}thiophen-2-yl)ethyl]amino}-2-methylpyrido[3,4-d]pyrimidin-6-yl)azetidin-3-yl]benzamide] | 59.5 nM | > 20000 nM |
| Cc1nc(NC(C)c2ccc(-c3ccccc3CN(C)C)s2)c2cc(N3CC(NC(=O)Cc4ccccc4)C3)ncc2n1 (stereo not shown) [Example 89, N-[1-(4-{[1-(5-{2-[(dimethylamino)methyl]phenyl}thiophen-2-yl)ethyl]amino}-2-methylpyrido[3,4-d]pyrimidin-6-yl)azetidin-3-yl]-2-phenylacetamide] | 44.4 nM | > 20000 nM |
| Cc1nc(NC(C)c2ccc(-c3ccccc3CN(C)C)s2)c2cc(N3CC(NC(=O)C4CCCCC4)C3)ncc2n1 (stereo not shown) [Example 90, N-[1-(4-{[1-(5-{2-[(dimethylamino)methyl]phenyl}thiophen-2-yl)ethyl]amino}-2-methylpyrido[3,4-d]pyrimidin-6-yl)azetidin-3-yl]cyclohexanecarboxamide] | 63 nM | > 20000 nM |
| Cc1nc(NC(C)c2ccc(-c3ccccc3CN(C)C)s2)c2cc(N3CC(NC(=O)CC4CC4)C3)ncc2n1 (stereo not shown) [Example 91, 2-cyclopropyl-N-[1-(4-{[1-(5-{2-[(dimethylamino)methyl]phenyl}thiophen-2-yl)ethyl]amino}-2-methylpyrido[3,4-d]pyrimidin-6-yl)azetidin-3-yl]acetamide] | 55.1 nM | > 20000 nM |
| Cc1nc(NC(C)c2ccc(-c3ccccc3CN(C)C)s2)c2cc(N3CC(N)C3)ncc2n1 (stereo not shown) [Example 93, 6-(3-aminoazetidin-1-yl)-N-[1-(5-{2-[(dimethylamino)methyl]phenyl}thiophen-2-yl)ethyl]-2-methylpyrido[3,4-d]pyrimidin-4-amine] | 33.5 nM | > 20000 nM |
| Cc1nc(NC(C)c2ccc(-c3ccccc3CN(C)C)s2)c2cc(N3CC(NS(=O)(=O)c4ccccc4)C3)ncc2n1 (stereo not shown) [Example 94, N-[1-(4-{[1-(5-{2-[(dimethylamino)methyl]phenyl}thiophen-2-yl)ethyl]amino}-2-methylpyrido[3,4-d]pyrimidin-6-yl)azetidin-3-yl]benzenesulfonamide] | 57.2 nM | > 20000 nM |
| Cc1nc(NC(C)c2ccc(-c3ccccc3CN(C)C)s2)c2cc(N3CC(NS(=O)(=O)Cc4ccccc4)C3)ncc2n1 (stereo not shown) [Example 95, N-[1-(4-{[1-(5-{2-[(dimethylamino)methyl]phenyl}thiophen-2-yl)ethyl]amino}-2-methylpyrido[3,4-d]pyrimidin-6-yl)azetidin-3-yl]-1-phenylmethanesulfonamide] | 107 nM | > 20000 nM |
| Cc1nc(NC(C)c2ccc(-c3ccccc3CN(C)C)s2)c2cc(N3CC(NC(=O)Nc4ccccc4)C3)ncc2n1 (stereo not shown) [Example 96, 1-[1-(4-{[1-(5-{2-[(dimethylamino)methyl]phenyl}thiophen-2-yl)ethyl]amino}-2-methylpyrido[3,4-d]pyrimidin-6-yl)azetidin-3-yl]-3-phenylurea] | 76.6 nM | > 20000 nM |
